Source: patent publication US12479818B2, “Treatment of fibrosis with IRE1 small molecule inhibitors” (Cornell University, priority 2019, dated 2025)

Target: IRE1a (Homo sapiens, UniProt O75460)
Experiment: IRE1a Endoribonuclease Nanoluciferase Assay (XBP1 luciferase reporter in 293T cells)
Format: cell-based
Design: endogenous in cells; host or cells: 293T
Conditions: XBP1 nanoluciferase reporter in 293T cells, ER stressor; tested as the salt named
Procedure: Compounds disclosed herein were assessed for disruption of IRE1 signaling using a IRE1a Endoribonuclease Nanoluciferase Assay. […] About 24 hours later, the cells were transfected with Effectene. In a 15 mL tube, the following was added: 2 ug XBP1 luciferase reporter plasmid (PGK-Luc2-P2A-XBP1u-Nanoluciferase-PEST); 300 ul EC buffer; and 16 ul Enhancer, followed by incubation at room temp for 5 minutes. […] 2.6 mL cDMEM media was added. Old media was aspirated from the cells, followed by addition of 7 mL fresh media. Full transfection mixture was added dropwise to cells. Cells were incubated for 6 hours, followed by trypsinization, centrifugation and resuspension in 11 mL fresh cDMEM media. 100 μL of cells were plated per a well in a 96 well plate. A day later, ER stressors of choice +/− inhibitors were added. To harvest, media was aspirated from cells completely, then 50 uL 1× passive lysis buffer (Promega: E1941) was added per well and put on shaker (300 rpm) for 30 minutes at room temperature. […] 15 uL OneGlo (nanoluciferase kit, Promega N1630) was added. Plates were spun down, placed on shaker (300 rpm) for 10 minutes. Plates were read on luminometer, 1000 ms integration time per well. 15 uL Stop and Glo (nanoluciferase kit) was added. Plates were spun down, placed on shaker (300 rpm) for 10 minutes. Plates were read on luminometer, 1000 ms second integration time per well.

Chain of IRE1a (O75460 19-977): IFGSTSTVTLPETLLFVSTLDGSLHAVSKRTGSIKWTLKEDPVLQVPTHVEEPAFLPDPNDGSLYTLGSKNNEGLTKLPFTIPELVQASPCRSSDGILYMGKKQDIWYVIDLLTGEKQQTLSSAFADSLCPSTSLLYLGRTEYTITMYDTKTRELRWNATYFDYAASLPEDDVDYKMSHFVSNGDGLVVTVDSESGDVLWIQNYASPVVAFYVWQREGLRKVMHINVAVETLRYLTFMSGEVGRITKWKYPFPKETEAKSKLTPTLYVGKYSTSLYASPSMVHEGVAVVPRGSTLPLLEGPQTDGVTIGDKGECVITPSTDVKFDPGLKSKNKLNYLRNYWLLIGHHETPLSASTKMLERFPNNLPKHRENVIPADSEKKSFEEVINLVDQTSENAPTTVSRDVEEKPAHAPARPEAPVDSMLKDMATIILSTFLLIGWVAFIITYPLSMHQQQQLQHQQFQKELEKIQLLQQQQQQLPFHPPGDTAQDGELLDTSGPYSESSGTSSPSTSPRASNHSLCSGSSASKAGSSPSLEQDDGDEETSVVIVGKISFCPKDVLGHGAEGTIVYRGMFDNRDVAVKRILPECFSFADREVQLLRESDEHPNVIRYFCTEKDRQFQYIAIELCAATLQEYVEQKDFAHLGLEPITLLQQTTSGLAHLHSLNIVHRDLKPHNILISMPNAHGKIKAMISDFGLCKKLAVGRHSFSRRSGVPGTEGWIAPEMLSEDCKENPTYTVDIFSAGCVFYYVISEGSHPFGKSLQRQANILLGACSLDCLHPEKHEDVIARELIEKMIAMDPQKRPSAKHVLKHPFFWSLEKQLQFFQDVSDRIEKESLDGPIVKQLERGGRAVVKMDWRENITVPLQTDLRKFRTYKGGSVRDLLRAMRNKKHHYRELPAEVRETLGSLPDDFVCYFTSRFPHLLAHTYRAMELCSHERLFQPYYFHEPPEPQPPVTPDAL

Row | EC50 | SMILES
1 | < 5 nM | CCc1cc(-c2ccc(NS(=O)(=O)c3ccccc3Cl)nc2C)cc2cnc(N[C@H]3CC[C@H](N(C)CC4CCC4)CC3)nc12 [Compound 130, 2-chloro-N-(5-(2-(((1r,4r)-4-((cyclobutylmethyl)(methyl)amino)cyclohexyl)amino)-8-ethylquinazolin-6-yl)-6-methylpyridin-2-yl)benzenesulfonamide]
2 | < 5 nM | CCc1cc(-c2ccc(NS(=O)(=O)c3ccccc3Cl)nc2OC)cc2cnc(N[C@H]3CC[C@H](NC)CC3)nc12 [Compound 116, 2-chloro-N-(5-(8-ethyl-2-(((1r,4r)-4-(methylamino)cyclohexyl)amino)quinazolin-6-yl)-6-methoxypyridin-2-yl)benzenesulfonamide]
3 | < 5 nM | CCc1cc(-c2ccc(NS(=O)(=O)c3ccccc3C)nc2OC)cc2cnc(NC3CCC(NC)CC3)nc12 (stereo not drawn) [Compound 118, N-(5-(8-ethyl-2-(((1r,4r)-4-(methylamino)cyclohexyl)amino)quinazolin-6-yl)-6-methoxypyridin-2-yl)-2-methylbenzenesulfonamide]
4 | < 5 nM | COc1nc(NS(=O)(=O)c2ccccc2Cl)ccc1-c1cc(C(F)(F)F)c2nc(N[C@H]3CC[C@H](N(C)C)CC3)ncc2c1 [Compound 135, 2-chloro-N-(5-(2-(((1r,4r)-4-(dimethylamino)cyclohexyl)amino)-8-(trifluoromethyl)quinazolin-6-yl)-6-methoxypyridin-2-yl)benzenesulfonamide]
5 | < 5 nM | COc1nc(NS(=O)(=O)c2ccccc2Cl)ccc1-c1cc(C(C)(F)F)c2nc(N[C@H]3CC[C@H](N(C)C)CC3)ncc2c1 [Compound 124, 2-chloro-N-(5-(8-(1,1-difluoroethyl)-2-(((1r,4r)-4-(dimethylamino)cyclohexyl)amino)quinazolin-6-yl)-6-methoxypyridin-2-yl)benzenesulfonamide]
6 | < 5 nM | CCc1cc(-c2ccc(NS(=O)(=O)c3ccccc3Cl)nn2)cc2cnc(N[C@H]3CC[C@H](NC)CC3)nc12 [Compound 61, 2-chloro-N-(6-(8-ethyl-2-(((lr,4r)-4-(methylamino)cyclohexyl)amino)quinazolin-6-yl)pyridazin-3-yl)benzene-sulfonamide]
7 | < 5 nM | CCc1cc(-c2ccc(NS(=O)(=O)c3ccccc3C)nc2OC)cc2cnc(N[C@H]3CC[C@H](N(C)C)CC3)nc12 [Compound 119, N-(5-(2-(((1r,4r)-4-(dimethylamino)cyclohexyl)amino)-8-ethylquinazolin-6-yl)-6-methoxypyridin-2-yl)-2-methylbenzenesulfonamide]
8 | < 5 nM | CCc1cc(-c2ncc(NS(=O)(=O)c3ccccc3Cl)nc2OC)cc2cnc(N[C@H]3CC[C@H](N)CC3)nc12 [Compound 98, N-(5-(2-(((1r,4)-4-aminocyclohexyl)amino)-8-ethylquinazolin-6-yl)-6-methoxypyrazin-2-yl)-2-chlorobenzenesulfonamide]
9 | < 5 nM | CCc1cc(-c2ccc(NS(=O)(=O)c3ccccc3Cl)nc2OC)cc2cnc(N[C@H]3CC[C@H](N(C)C)CC3)nc12 [Compound 99, 2-chloro-N-(5-(2-(((1r,4r)-4-(dimethylamino)cyclohexyl)amino)-8-ethylquinazolin-6-yl)-6-methoxypyridin-2-yl)benzenesulfonamide]
10 | < 5 nM | CCc1cc(-c2ccc(NS(=O)(=O)c3ccccc3Cl)nc2C)cc2cnc(N[C@H]3CC[C@H](N(C)CCOC)CC3)nc12 [Compound 132, 2-chloro-N-(5-(8-ethyl-2-(((1r,4r)-4-((2-methoxyethyl)(methyl)amino)cyclohexyl)amino)quinazolin-6-yl)-6-methylpyridin-2-yl)benzenesulfonamide]
11 | 5 to 50 nM | CN[C@H]1CC[C@H](Nc2ncc3cc(-c4cc(F)c(NS(=O)(=O)c5ccccc5Cl)nc4OC)ccc3n2)CC1 [Compound 150, 2-chloro-N-(3-fluoro-6-methoxy-5-(2-(((1r,4r)-4-(methylamino)cyclohexyl)amino)quinazolin-6-yl)pyridin-2-yl)benzenesulfonamide]
12 | < 5 nM | CCc1cc(-c2ccc(NS(=O)(=O)c3ccccc3Cl)nn2)cc2cnc(N[C@H]3CC[C@H](N(C)C)CC3)nc12 [Compound 64, 2-chloro-N-(6-(2-(((1r,4r)-4-(dimethylamino)cyclohexyl)amino)-8-ethylquinazolin-6-yl)pyridazin-3-yl)benzene-sulfonamide]
13 | < 5 nM | COCc1cc(-c2ccc(NS(=O)(=O)c3ccccc3Cl)nc2OC)cc2cnc(N[C@H]3CC[C@H](N(C)C)CC3)nc12 [Compound 137, 2-chloro-N-(5-(2-(((1r,4r)-4-(dimethylamino)cyclohexyl)amino)-8-(methoxymethyl)quinazolin-6-yl)-6-methoxypyridin-2-yl)benzenesulfonamide]
14 | < 5 nM | CCc1cc(-c2ccc(NS(=O)(=O)c3ccccc3Cl)nn2)cc2cnc(N[C@H]3CC[C@H](N)CC3)nc12 [Compound 32]

Second part, the compound before the results:

Row | SMILES | EC50
15 | CCc1cc(-c2ccc(NS(=O)(=O)c3ccccc3Cl)c(F)c2)cc2cnc(N[C@@H]3CCC[C@H](N)C3)nc12 [Compound 72, N-(4-(2-(((1R,3S)-3-aminocyclohexyl)amino)-8-ethylquinazolin-6-yl)-2-fluorophenyl)-2-chlorobenzene-sulfonamide] | 100 to 10000 nM
16 | Cc1nc(NS(=O)(=O)c2ccccc2Cl)ncc1-c1ccc2nc(N[C@H]3CC[C@H](N)CC3)ncc2c1 [Compound 68, N-(5-(2-(((1r,4r)-4-aminocyclohexyl)amino)quinazolin-6-yl)-4-methylpyrimidin-2-yl)-2-chlorobenzene-sulfonamide] | 50 to 100 nM
17 | CCc1cc(-c2cnc(NS(=O)(=O)c3ccccc3Cl)nc2C)cc2cnc(N[C@H]3CC[C@H](N)CC3)nc12 [Compound 23, N-(5-(2-(((1r,4r)-, 4-aminocyelohexyl)amino)-8-ethylquinazolin-6-yl)-4-methylpyrimidin-2-yl)-2-ehlorobenzene-sulfonamide] | < 5 nM
18 | CCc1cc(-c2cnc(NS(=O)(=O)c3ccccc3Cl)c(F)c2)cc2cnc(N[C@H]3CC[C@H](N)CC3)nc12 [Compound 55, N-(5-(2-(((1r,4r)-4-aminocyclohexyl)amino)-8-ethylquinazolin-6-yl)-3-fluoropyridin-2-yl)-2-chlorobenzene-sulfonamide] | < 5 nM
19 | N[C@H]1CC[C@H](Nc2ncc3cc(-c4c(F)cc(NS(=O)(=O)c5ccccc5Cl)cc4F)ccc3n2)CC1 [Compound 62, N-(4-(2-(((1r,4r)-4-aminocyclohexyl)amino)quinazolin-6-yl)-3,5-difluorophenyl)-2-chlorobenzene-sulfonamide] | 5 to 50 nM
20 | CCc1cc(-c2nnc(NS(=O)(=O)c3ccccc3Cl)cc2OC)cc2cnc(N[C@H]3CC[C@H](N)CC3)nc12 [Compound 65, N-(6--(2-(((lr,4r)-4-aminocyclohexyl)amino)-8-ethylquinazolin-6-yl)-5-methoxypyridazin-3-yl)-2-chlorobenzene-sulfonamide] | 5 to 50 nM
21 | CCc1cc(-c2nnc(NS(=O)(=O)c3ccccc3Cl)cc2OC)cc2cnc(N[C@H]3CC[C@H](N(C)C)CC3)nc12 [Compound 159, 2-chloro-N-(6-(2-(((1r,4r)-4-(dimethylamino)cyclohexyl)amino)-8-ethylquinazolin-6-yl)-5-methoxypyridazin-3-yl)benzenesulfonamide] | 5 to 50 nM
22 | CCc1c(F)c(-c2cc(F)c(NS(=O)(=O)c3ccccc3Cl)nc2OC)cc2cnc(N[C@H]3CC[C@H](N(C)C)CC3)nc12 [Compound 163, 2-chloro-N-(5-(2-(((1r,4r)-4-(dimethylamino)cyclohexyl)amino)-8-ethyl-7-fluoroquinazolin-6-yl)-3-fluoro-6-methoxypyridin-2-yl)benzenesulfonamide] | < 5 nM
23 | CCc1cc(-c2ccc(NS(=O)(=O)c3ccccc3Cl)c(F)c2)cc2cnc(N[C@H]3CC4C[C@@H](N)CC4C3)nc12 (stereo partly drawn) [Compound 84, N-(4-(2-(((2s,5s)-5-aminoocta-hydropentalen-2-yl)amino)-8-ethylquinazolin-6-yl)-2-fluorophenyl)-2-chlorobenzene-sulfonamide] | 5 to 50 nM
24 | CCc1cc(-c2ccc(NS(=O)(=O)c3ccccc3Cl)c(F)c2)cc2cnc(N[C@@H]3CC[C@H](N)C3)nc12 [Compound 79, N-(4-(2-(((1R,3S)-3-aminocyclopentyl)amino)-8-ethylquinazolin-6-yl)-2-fluorophenyl)-2-chlorobenzene-sulfonamide] | 5 to 50 nM
25 | CCc1cc(-c2ccc(NS(=O)(=O)c3ccccc3Cl)c(F)c2)cc2cnc(N[C@H]3CC[C@H](N(C)C)CC3)nc12 [Compound 69] | < 5 nM
26 | CCc1cc(-c2ccc(NS(=O)(=O)c3ccccc3Cl)nc2C)cc2cnc(N[C@@H]3CC[C@@H](N(C)C)C[C@@H]3F)nc12 [Compound 151, 2-chloro-N-(5-(2-(((1R,2S,4R)-4-(dimethylamino)-2-fluorocyclohexyl)amino)-8-ethylquinazolin-6-yl)-6-methylpyridin-2-yl)benzenesulfonamide] | < 5 nM
27 | CCc1c(F)c(-c2ccc(NS(=O)(=O)c3ccccc3Cl)nc2C)cc2cnc(N[C@H]3CC[C@H](N(C)C)CC3)nc12 [Compound 161, 2-chloro-N-(5-(2-(((1r,4r)-4-(dimethylamino)cyclohexyl)amino)-8-ethyl-7-fluoroquinazolin-6-yl)-6-methylpyridin-2-yl)benzenesulfonamide] | < 5 nM
